The text below walks through data of PubChem BioAssay AID248 (DTP/NCI, 2004).

In this assay the test system is L1210 leukemia ip in BDF1 mice, survival T/C. Description: NCI In Vivo Anticancer Drug Screen. Data for tumor model L1210 Leukemia (intraperitoneal) in B6D2F1 (BDF1) mice. Particulars: endpoint: mean survival time, higher = longer survival. An outline of the steps: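 Antitumor effect is assessed in tumor-bearing animals. Survival in the compound arm is compared with a vehicle-dosed control arm and expressed as their quotient.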

Setting [1] is: dose: 100.0 mg/kg/injection, schedule: Q04DX003 (ip), vehicle: saline with Tween-80.
Setting [2] is: dose: 200.0 mg/kg/injection, schedule: Q04DX003 (ip), vehicle: saline with Tween-80.
Setting [3] is: dose: 400.0 mg/kg/injection, schedule: Q04DX003 (ip), vehicle: saline with Tween-80.
[4] abbreviates: dose: 100.0 mg/kg/injection, schedule: Q01DX001 (ip), vehicle: saline.
Setting [5] is: dose: 200.0 mg/kg/injection, schedule: Q01DX001 (ip), vehicle: saline.
[6] abbreviates: dose: 400.0 mg/kg/injection, schedule: Q01DX001 (ip), vehicle: saline.
[7] abbreviates: dose: 100.0 mg/kg/injection, schedule: Q01DX009 (ip), vehicle: Klucel (hydroxypropylcellulose) (HPC).
The mark [8] stands for this setting: dose: 200.0 mg/kg/injection, schedule: Q01DX009 (ip), vehicle: Klucel (hydroxypropylcellulose) (HPC).
[9] abbreviates: dose: 400.0 mg/kg/injection, schedule: Q01DX009 (ip), vehicle: Klucel (hydroxypropylcellulose) (HPC).
[10] abbreviates: dose: 100.0 mg/kg/injection, schedule: Q04DX003 (ip), vehicle: saline.
The mark [11] stands for this setting: dose: 200.0 mg/kg/injection, schedule: Q04DX003 (ip), vehicle: saline.
[12] abbreviates: dose: 100.0 mg/kg/injection, schedule: Q04DX003 (ip), vehicle: Klucel (hydroxypropylcellulose) (HPC).
The mark [13] stands for this setting: dose: 200.0 mg/kg/injection, schedule: Q04DX003 (ip), vehicle: Klucel (hydroxypropylcellulose) (HPC).
[14] abbreviates: dose: 400.0 mg/kg/injection, schedule: Q04DX003 (ip), vehicle: Klucel (hydroxypropylcellulose) (HPC).
Where [15] appears, read: dose: 100.0 mg/kg/injection, schedule: Q01DX009 (ip), vehicle: saline.
[16] abbreviates: dose: 200.0 mg/kg/injection, schedule: Q01DX009 (ip), vehicle: saline.

SMILES strings stand for the structures. “And” between values parts separate entries of the source, which are not always exact repeats. Equal values may be shown once. Toxic doses and inconclusive results are not listed.

Turning to `c1ccc(N=NC2(c3ccccc3)CCC(c3ccccc3)=NN2c2ccccc2)cc1` (stereo unspecified), the T/C runs as follows: under setting [1], 100 % of control; under setting [2], 89 % of control; under setting [3], 93 % of control.
For the compound `COc1ccc(OC)c2c(OC(C)=O)c3ccccc3c(OC(C)=O)c12`, the T/C is 98 % of control (dose: 50.0 mg/kg/injection, schedule: Q01DX001 (ip), vehicle: carboxymethylcellulose (CMC)); 108 % of control (dose: 100.0 mg/kg/injection, schedule: Q01DX001 (ip), vehicle: carboxymethylcellulose (CMC)); 98 % of control (dose: 200.0 mg/kg/injection, schedule: Q01DX001 (ip), vehicle: carboxymethylcellulose (CMC)); 110 % of control (dose: 400.0 mg/kg/injection, schedule: Q01DX001 (ip), vehicle: carboxymethylcellulose (CMC)).
For the compound `O=C(NCCCCC(NC(=O)OCc1ccccc1)C(=O)Nc1ccc(Nc2ccc(NC(=O)C(CCCCNC(=O)OCc3ccccc3)NC(=O)OCc3ccccc3)cc2)cc1)OCc1ccccc1` (stereo unspecified), the T/C under setting [4] was 88 % of control, the T/C under setting [5] is 92 % of control and the T/C under setting [6] is 94 % of control.
On to `Cc1cccc(Nc2n[nH]c(=S)s2)c1`, for which the T/C was 93 % of control under setting [7], 98 % of control under setting [8] and 87 % of control under setting [9].
For the compound `NS(=O)(=O)CS(N)(=O)=O`, the T/C is, setting by setting: under setting [4], 100 % of control; under setting [5], 96 % of control; under setting [6], 96 % of control.
Consider `O=C1CCCc2c1[nH]c1ccccc21`, for which the T/C under setting [1] is 97 % of control, the T/C under setting [2] was 98 % of control and the T/C under setting [3] was 98 % of control.
Consider `CCOC(C[N+](C)(C)C)OCC`, for which the T/C (dose: 50.0 mg/kg/injection, schedule: Q04DX003 (ip), vehicle: saline) is 93 % of control; the T/C under setting [10] was 97 % of control; the T/C under setting [11] is 101 % of control.
As for `Cc1cc(C)c(NC(=O)N(CCCl)N=O)cc1C`, the T/C (dose: 1.0 mg/kg/injection, schedule: Q01DX009 (ip), vehicle: carboxymethylcellulose (CMC)) is 104 % of control; the T/C (dose: 2.0 mg/kg/injection, schedule: Q01DX009 (ip), vehicle: carboxymethylcellulose (CMC)) was 109 % of control; the T/C (dose: 4.0 mg/kg/injection, schedule: Q01DX009 (ip), vehicle: carboxymethylcellulose (CMC)) was 107 % of control; the T/C (dose: 50.0 mg/kg/injection, schedule: Q01DX001 (ip), vehicle: other) is 97 % of control; the T/C (dose: 88.0 mg/kg/injection, schedule: Q01DX009 (ip), vehicle: carboxymethylcellulose (CMC)) is 155 % of control; the T/C (dose: 100.0 mg/kg/injection, schedule: Q01DX001 (ip), vehicle: other) is 106 % of control. Besides, the T/C runs as follows: (dose: 133.0 mg/kg/injection, schedule: Q01DX009 (ip), vehicle: carboxymethylcellulose (CMC)) 180 % of control; (dose: 200.0 mg/kg/injection, schedule: Q01DX001 (ip), vehicle: other) 100 % of control; (dose: 200.0 mg/kg/injection, schedule: Q01DX009 (ip), vehicle: carboxymethylcellulose (CMC)) 166 % of control.
As to `CC(=O)OC1C(SC(C)(C)C)C=CC(SC(C)(C)C)N1C(C)=O` (stereo unspecified), the T/C under setting [7] was 103 % of control, the T/C under setting [8] is 103 % of control and the T/C under setting [9] was 95 % of control.
Consider `Cc1ccc(N=C(c2ccccc2)c2ccc([N+](=O)[O-])cc2)cc1`, for which the T/C is 98 % of control under setting [7]; 105 % of control under setting [12]; 101 % of control under setting [8]; 93 % of control under setting [13]; 103 % of control under setting [9]; 102 % of control under setting [14].
Turning to `O=C1CNC(=O)N1`, the T/C reads like this: (dose: 50.0 mg/kg/injection, schedule: Q01DX009 (ip), vehicle: saline) 105 % of control; under setting [15], 107 % of control; under setting [10], 94 % of control; under setting [16], 96 % of control; under setting [11], 100 % of control; (dose: 400.0 mg/kg/injection, schedule: Q01DX009 (ip), vehicle: saline) 96 % of control. Besides, the T/C (dose: 400.0 mg/kg/injection, schedule: Q04DX003 (ip), vehicle: saline) is 98 % of control.
As for `C/C(=C1\C(=O)Nc2ccccc21)c1cccnc1`, the T/C is, setting by setting: (dose: 25.0 mg/kg/injection, schedule: Q01DX Z (ip), vehicle: carboxymethylcellulose (CMC)) 103 % of control; (dose: 50.0 mg/kg/injection, schedule: Q01DX Z (ip), vehicle: carboxymethylcellulose (CMC)) 96 % of control; (dose: 100.0 mg/kg/injection, schedule: Q01DX Z (ip), vehicle: carboxymethylcellulose (CMC)) 103 % of control; (dose: 200.0 mg/kg/injection, schedule: Q01DX Z (ip), vehicle: carboxymethylcellulose (CMC)) 111 % of control.
Take `Cc1cccc(NC(=O)Nc2cc(C)on2)c1`: the T/C was 100 % of control (dose: 100.0 mg/kg/injection, schedule: Q01DX001 (ip), vehicle: Klucel (hydroxypropylcellulose) (HPC)); 91 % of control under setting [7]; 98 % of control and 102 % of control (dose: 100.0 mg/kg/injection, schedule: Q04DX002 (ip), vehicle: Klucel (hydroxypropylcellulose) (HPC)); 92 % of control under setting [12]; 95 % of control (dose: 200.0 mg/kg/injection, schedule: Q01DX001 (ip), vehicle: Klucel (hydroxypropylcellulose) (HPC)); 94 % of control and 91 % of control under setting [8]. The T/C was 94 % of control and 98 % of control (dose: 200.0 mg/kg/injection, schedule: Q04DX002 (ip), vehicle: Klucel (hydroxypropylcellulose) (HPC)); 93 % of control under setting [13]; 95 % of control (dose: 400.0 mg/kg/injection, schedule: Q01DX001 (ip), vehicle: Klucel (hydroxypropylcellulose) (HPC)); 100 % of control and 91 % of control under setting [9]; 98 % of control and 109 % of control (dose: 400.0 mg/kg/injection, schedule: Q04DX002 (ip), vehicle: Klucel (hydroxypropylcellulose) (HPC)); 93 % of control under setting [14].
In the case of `N#Cc1cc(C(Cl)(Cl)Cl)ccc1C(Cl)(Cl)Cl`, the T/C under setting [12] is 97 % of control, the T/C under setting [13] was 95 % of control and the T/C under setting [14] was 90 % of control.
With `COc1ccc(N=C(N)N=C(N)N)cc1`, the T/C (dose: 50.0 mg/kg/injection, schedule: Q01DX001 (ip), vehicle: saline) is 111 % of control; the T/C under setting [4] was 104 % of control; the T/C under setting [15] is 91 % of control; the T/C under setting [5] was 95 % of control; the T/C under setting [16] was 92 % of control.
Regarding `O=C(N/N=C/c1ccncc1)c1ccccc1`, the T/C is 112 % of control under setting [15] and 112 % of control under setting [16].
Regarding `O=[N+]([O-])c1ccc(/C=N/O)s1`, the T/C is 95 % of control (dose: 25.0 mg/kg/injection, schedule: Q04DX002 (ip), vehicle: saline with Tween-80) and 104 % of control (dose: 50.0 mg/kg/injection, schedule: Q04DX002 (ip), vehicle: saline with Tween-80).
As to `CCOc1ccc(NC(=O)C(Br)C(Br)c2ccccc2)cc1` (stereo unspecified), the T/C was 100 % of control under setting [7], 96 % of control under setting [8] and 91 % of control under setting [9].
Regarding `Oc1c(Cl)cc(Cl)cc1/C=N/N1CCN(/N=C/c2cc(Cl)cc(Cl)c2O)CC1`, the T/C was 87 % of control under setting [4] and 87 % of control under setting [5].
As to `O=C1OC(COCC#Cc2ccccc2)CN1c1ccccc1` (stereo unspecified), the T/C runs as follows: (dose: 100.0 mg/kg/injection, schedule: Q01DX009 (ip), vehicle: saline with Tween-80) 105 % of control; under setting [1], 95 % of control; (dose: 200.0 mg/kg/injection, schedule: Q01DX009 (ip), vehicle: saline with Tween-80) 106 % of control; under setting [2], 101 % of control; (dose: 400.0 mg/kg/injection, schedule: Q01DX009 (ip), vehicle: saline with Tween-80) 103 % of control; under setting [3], 100 % of control.
Regarding `Clc1ccc2nncn2n1`, the T/C is 97 % of control (dose: 50.0 mg/kg/injection, schedule: Q04DX003 (ip), vehicle: saline with Tween-80); 100 % of control under setting [1]; 100 % of control under setting [2].
Consider `CN(C)CCC1(c2ccccc2)CCN(C)C1=O` (stereo unspecified), for which the T/C was 95 % of control (dose: 75.0 mg/kg/injection, schedule: Q01DX001 (ip), vehicle: carboxymethylcellulose (CMC)) and 95 % of control (dose: 150.0 mg/kg/injection, schedule: Q01DX001 (ip), vehicle: carboxymethylcellulose (CMC)).
